tested on: monoclonal antibody D32.39; details: normalized 0 to 100% after background subtraction
Experimental: Non-specific protein binding to the surface was blocked with 1% BSA/PBS/0.05% Tween 20. The array was incubated with the D32.39 antibody at a concentration of 10 μg/ml for 2 hours, followed by reaction with 10 μg/ml of FITC conjugated anti-mounse antibody (Sigma) for 2 hours at 20° C. Following extensive washing with buffer, the array was scanned in a confocal fluorescence microscope with 488 nm excitation from an argon ion laser (Spectra-Physics). […] The replicates were averaged, and the data sorted according to desired sequences.

Substance	relative intensity (normalized fluorescence signal)
FLRRQFKVVT	about 100%

same assay, conditions: relative fluorescence intensity of the corresponding surface-immobilized peptide (N-acetylated, C-terminal amide link to surface)

Substance	Normalized Intensity (%)
Ac-FLRRQFKVVT-OH	98%
Ac-QFKVVT-OH [Ac-QFKVVT-OH]	28%
Ac-RQFKVVT-OH [Ac-RQFKVVT-OH]	99%
Ac-RRQFKVVT-OH	99%

same assay, conditions: truncated dynorphin peptides, surface-immobilized, N-acetylated, linked via C-terminal amide; D32.39 10 μg/ml 2 hours; ± SD of min. four replicates; […]

Substance	Normalized Intensity (%)
FKVV	10 ± 2%
FKVVT	13 ± 4%
FLRR	6 ± 3%
FLRRQ	8 ± 3%
FLRRQF	8 ± 3%
FLRRQFK	10 ± 3%
FLRRQFKV	14 ± 3%
FLRRQFKVV	37 ± 15%
FLRRQFKVVT	98 ± 1%
KVVT	11 ± 2%
LRRQ	10 ± 4%
LRRQF	10 ± 4%
LRRQFK	12 ± 3%
LRRQFKV	16 ± 3%
LRRQFKVV	44 ± 12%
LRRQFKVVT	87 ± 13%
QFKV	11 ± 2%
QFKVV	17 ± 2%
QFKVVT	28 ± 3%
RQFK	13 ± 5%
RQFKV	16 ± 4%
RQFKVV	54 ± 11%
RQFKVVT	99 ± 1%
RRQF	11 ± 5%
RRQFK	12 ± 3%
RRQFKV	16 ± 3%
RRQFKVV	58 ± 10%
RRQFKVVT	99 ± 1%

— US20030099983A1, “Cyclic and substituted immobilized molecular synthesis” (Affymetrix, Inc., priority 1991, published 2003)
